Assay results taken from patent US20130317009A1 (priority 2012, published 2013).
Values joined by “and” are separate entries in the source; they are usually repeats but may differ in a detail not shown here. Identical values can stand only once. Counter-ions that a name gives are not always drawn.

How the values were obtained:
rat = test: animal or person; format: in vivo; conditions: for ED50: Rattus norvegicus, 0.25 h, read-out: ED50 (95% CI) second pharmacologically active ingredient
male Sprague-Dawley rats = conditions: rat, in vivo

SMILES	ED50 (rat; ip) [mg/kg]	timepoint of peak effect (rat; rat, in vivo) [min p. appl.]	% MPE (Maximum possible effect) 60 min. (male Sprague-Dawley rats) [% MPE]	% MPE (Maximum possible effect) 180 min. (male Sprague-Dawley rats) [% MPE]	% MPE (Maximum possible effect) 30 min. (male Sprague-Dawley rats; dihydrochloride)	ED50 (95% CI) second pharmacologically active ingredient (rat; rat, in vivo, ip)
CC[C@@H](C(N)=O)N1CCCC1=O [Levetiracetam, levetiracetam]	986	15	–	–	–	–
NC(=O)N1c2ccccc2C=Cc2ccccc21 [carbamazepine]	30	15	–	–	–	–
CCOC(=O)Nc1ccc(NCc2ccc(F)cc2)cc1N [retigabine dihydrochloride]	5.09	15	−2.0 ± 7.9	−2.8 ± 8.0	23.1 % MPE and 23.1 ± 5.0 % MPE	–
Nc1nnc(-c2cccc(Cl)c2Cl)c(N)n1 [lamotrigine]	30	15	–	–	–	35253 μg/kg and 35253 (38082-32740) μg/kg
COC[C@@H](NC(C)=O)C(=O)NCc1ccccc1 [lacosamide]	35.3	15	–	–	–	–
